Data taken from patent US4582794A, “Method of determining polyamine content of biological fluids” (The University of Arizona Foundation, priority 1982, dated 1986).

These compounds were tested against T1, guinea pig liver transglutaminase (UniProt P08587) (assay: transglutaminase-competition assay (incorporation of [3H]putrescine into dimethylated casein)). Details: 0.1 μM [3H]putrescine; 30 mM tris(hydroxymethyl)aminomethane HCl pH 8.0; FIG. 2.
T1 construct: guinea pig liver transglutaminase; from tissue; host or cells: guinea pig liver
T1 sequence (P08587 2-690 limits assumed): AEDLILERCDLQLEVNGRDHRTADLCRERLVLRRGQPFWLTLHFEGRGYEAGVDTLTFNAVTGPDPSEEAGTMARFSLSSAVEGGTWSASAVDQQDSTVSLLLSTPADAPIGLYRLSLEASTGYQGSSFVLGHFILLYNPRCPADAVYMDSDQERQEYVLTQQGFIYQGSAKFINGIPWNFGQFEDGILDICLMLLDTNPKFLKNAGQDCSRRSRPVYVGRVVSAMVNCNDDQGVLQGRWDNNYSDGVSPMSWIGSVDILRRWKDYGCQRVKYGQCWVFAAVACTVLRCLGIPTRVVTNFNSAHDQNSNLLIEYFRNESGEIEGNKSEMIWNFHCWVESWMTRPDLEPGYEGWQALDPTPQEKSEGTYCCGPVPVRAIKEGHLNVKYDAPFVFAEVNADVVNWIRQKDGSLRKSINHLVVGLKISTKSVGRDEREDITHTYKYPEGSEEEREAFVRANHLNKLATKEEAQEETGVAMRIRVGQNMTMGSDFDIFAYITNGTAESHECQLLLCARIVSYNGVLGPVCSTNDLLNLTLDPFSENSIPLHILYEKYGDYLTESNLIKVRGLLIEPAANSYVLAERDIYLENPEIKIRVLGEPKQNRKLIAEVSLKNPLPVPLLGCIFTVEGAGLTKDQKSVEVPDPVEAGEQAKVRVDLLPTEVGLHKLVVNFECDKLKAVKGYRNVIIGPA
Type: biochemical
Description: The transglutaminase competition assay was conducted in the presence of 30 mM tris(hydroxymethyl)aminomethane HCl, pH 8.3 (closed circles); 30 mM glycine, pH 9.25, (open circles); 30 mM glycine, pH 9.75 (open triangles); or 30 mM glycine, pH 10.0 (open squares). The data were obtained in the presence of increasing amounts of unlabeled putrescine.
The ability of transglutaminase to incorporate polyamines into a covalent conjugate with protein is the basis for an assay procedure based on competition between radiolabeled polyamine and unlabeled polyamine-containing standards or samples as the enzyme's substrates. However, because the affinity of transglutaminase for amine-containing substrates is relatively low the assay reaction could not be conducted under saturating substrate conditions and yield the level of sensitivity required to measure the polyamine content of biological samples. Therefore, assay conditions were developed which would make the protein acceptor substrate ratelimiting and allow the reaction to be run to completion, the radioactive and unlabeled polyamine competing for the completion, the radioactive and unlabeled polyamine competing for the limited number of conjugation sites. […] In all cases, the maximum incorporation was achieved by 30-60 minutes and was stable to another hour.
The reaction was initiated by the addition of transglutaminase solution (10 μl), incubated 60 minutes at 37° C. […] Triplicate aliquots (35 μl) of the solution were spotted on 1.5×8 cm instant thin-layer chromatography strips at a site 1.5 cm above the bottom edge which had previously received 60 μl of 20% trichloroacetic acid. Ascending chromatography was immediately carried out in 5% trichloroacetic acid containing 0.2 M KCl. After the solvent front had reached the top of the strip (ca. 10 minutes), a 2.5-cm segment from 1.5 cm above the 1 cm below the origin was cut out, dried, and the segment counted in 6 ml of scintillation liquid (toluene/Omnifluor, New England Nuclear, Boston).

50% displacement of [3H]putrescine incorporation, 800 pmol:
NCCCCN [putrescine, Putrescine]
NCCCCNCCCN [spermidine, Spermidine]
NCCCNCCCCNCCCN [spermine]
